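How tested: cells in 96-well plates exposed to compound for 48 hours at five concentrations. At the GI50, growth is halved.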 Activity calls are given as the source filed them. Rule as the data show it: active = GI50 up to about 1.1 µM and inactive = higher. Where a SMILES comes first, the peptide text is derived from it. The star is where a group is joined. Boc = CC(C)(C)OC(=O)*
How the values were obtained:
Assay in all cases: growth of human tumour cells (NCI), 48 h
A498 = system: A498
HCT-116 = system: HCT-116
HOP-92 = system: HOP-92
KM12 = system: KM12
M14 = system: M14
Malme-3M = system: Malme-3M
OVCAR-3 = system: OVCAR-3
OVCAR-8 = system: OVCAR-8
RPMI-8226 = system: RPMI-8226
SR = system: SR
TK-10 = system: TK-10
U-251 = system: U-251
EKVX = system: EKVX
HCC 2998 = system: HCC 2998
HL-60 = system: HL-60
K562 = system: K562
NCI-H522 = system: NCI-H522
SF-268 = system: SF-268
SK-OV-3 = system: SK-OV-3
UACC-62 = system: UACC-62

| SMILES | GI50 (A498) | GI50 (HCT-116) | GI50 (HOP-92) | GI50 (KM12) | GI50 (M14) | GI50 (Malme-3M) | GI50 (OVCAR-3) | GI50 (OVCAR-8) | GI50 (RPMI-8226) | GI50 (SR) | GI50 (TK-10) | GI50 (U-251) | GI50 (EKVX) | GI50 (HCC 2998) | GI50 (HL-60) | GI50 (K562) | GI50 (NCI-H522) | GI50 (SF-268) | GI50 (SK-OV-3) | GI50 (UACC-62) |
| --- | --- | --- | --- | --- | --- | --- | --- | --- | --- | --- | --- | --- | --- | --- | --- | --- | --- | --- | --- | --- |
| Nc1nc(O)c2ncn(C3C=CC(CO)O3)c2n1 (stereo not given) | > 100 µM (inactive) | > 100 µM (inactive) | > 100 µM (inactive) | > 100 µM (inactive) | > 100 µM (inactive) | > 100 µM (inactive) | > 100 µM (inactive) | > 100 µM (inactive) | > 100 µM (inactive) | > 100 µM (inactive) | > 100 µM (inactive) | > 100 µM (inactive) | – | – | – | – | – | – | – | – |
| COc1ccc(Cc2nn(C3OC(COC(C)=O)C(OC(C)=O)C(OC(C)=O)C3OC(C)=O)c(=S)n(-c3ccc(OC)cc3)c2=O)cc1 (stereo not given) | > 100 µM (inactive) | > 100 µM (inactive) | > 87.5 µM (inactive) | > 100 µM (inactive) | – | > 100 µM (inactive) | > 100 µM (inactive) | > 100 µM (inactive) | > 100 µM (inactive) | – | – | > 100 µM (inactive) | > 54.3 µM (inactive) | > 100 µM (inactive) | > 77.8 µM (inactive) | > 100 µM (inactive) | > 100 µM (inactive) | > 100 µM (inactive) | > 100 µM (inactive) | > 100 µM (inactive) |
| Cc1c2cnccc2c(C)c2c1c1ccccc1n2CC1CO1 (stereo not given) | 0.247 µM (active) | 0.327 µM (active) | 1.81 µM (inactive) | 1.58 µM (inactive) | – | 1.75 µM (inactive) | 1.57 µM (inactive) | 0.443 µM (active) | 0.883 µM (active) | – | – | 1.6 µM (inactive) | 0.687 µM (active) | 1.18 µM (inactive) | 0.0283 µM (active) | 0.859 µM (active) | 1.07 µM (active) | 0.323 µM (active) | 2.53 µM (inactive) | 1.63 µM (inactive) |
| NC(=O)CCC(NCc1c2ccccc2[n+]([O-])c2ccccc12)C(=O)O (stereo not given) | > 100 µM (inactive) | 30.8 µM (inactive) | – | 65.9 µM (inactive) | > 100 µM (inactive) | 81.8 µM (inactive) | > 100 µM (inactive) | > 100 µM (inactive) | 36.1 µM (inactive) | – | > 100 µM (inactive) | > 100 µM (inactive) | > 100 µM (inactive) | > 100 µM (inactive) | 29.3 µM (inactive) | 36.3 µM (inactive) | 70 µM (inactive) | 59.2 µM (inactive) | > 100 µM (inactive) | 90.8 µM (inactive) |
| CCc1c(O)c2c(c(O)c1C(C)=O)C(=O)c1c(cc(O)c(C(=O)O)c1C(=O)O)C2=O | > 100 µM (inactive) | > 100 µM (inactive) | > 100 µM (inactive) | > 100 µM (inactive) | > 100 µM (inactive) | > 100 µM (inactive) | > 100 µM (inactive) | > 100 µM (inactive) | > 100 µM (inactive) | > 100 µM (inactive) | > 100 µM (inactive) | > 100 µM (inactive) | > 100 µM (inactive) | > 100 µM (inactive) | – | > 100 µM (inactive) | > 100 µM (inactive) | > 100 µM (inactive) | > 100 µM (inactive) | > 100 µM (inactive) |
| O=C1C(Br)=CC2([N+](=O)[O-])CCNC3=C(C4=NCCc5c[nH]c(c54)C3=O)C2=C1Br (stereo not given) | 5.06 µM (inactive) | 0.317 µM (active) | 0.811 µM (active) | 3.96 µM (inactive) | – | – | 0.0546 µM (active) | 0.365 µM (active) | 0.159 µM (active) | – | – | 1.51 µM (inactive) | 2.33 µM (inactive) | 2.62 µM (inactive) | 0.206 µM (active) | 0.424 µM (active) | 0.1 µM (active) | 2.26 µM (inactive) | 3.13 µM (inactive) | 1.72 µM (inactive) |
| CN1CCC(C(O)(c2ccccc2)c2ccc(Br)cc2)CC1 (stereo not given) | – | 18.8 µM (inactive) | 8.45 µM (inactive) | 18.6 µM (inactive) | 15.3 µM (inactive) | 14.5 µM (inactive) | 39.4 µM (inactive) | 50.2 µM (inactive) | 17.3 µM (inactive) | 17.5 µM (inactive) | 25.9 µM (inactive) | 17.7 µM (inactive) | 28.8 µM (inactive) | 12.6 µM (inactive) | 20.4 µM (inactive) | 16.7 µM (inactive) | 15.5 µM (inactive) | 31.5 µM (inactive) | 32.7 µM (inactive) | 15.7 µM (inactive) |
| CC(C)(C)OC(=O)NC(Cc1ccccc1)C(=O)N1CCCC1C(N)=O (stereo not drawn) (Boc-Phe-Pro-NH2; configuration not given here) | – | > 100 µM (inactive) | 1.74 µM (inactive) | – | > 100 µM (inactive) | > 100 µM (inactive) | > 100 µM (inactive) | > 100 µM (inactive) | > 100 µM (inactive) | > 100 µM (inactive) | > 100 µM (inactive) | – | > 100 µM (inactive) | > 100 µM (inactive) | > 100 µM (inactive) | > 100 µM (inactive) | > 100 µM (inactive) | > 100 µM (inactive) | > 100 µM (inactive) | > 100 µM (inactive) |
